Measurements published in patent EP2233566A1, “Generation of pancreatic progenitor cells” (Vrije Universiteit Brussel, priority 2009, dated 2010).

Tested on: human embryonic stem cells-derived definitive endoderm
Assay: Hepatic differentiation (AFP / albumin expression) of hES cell-derived definitive endoderm
Format: cell-based
Experimental: Cells were split in 4-well plates and differentiation performed in five stages as previously published (D'Amour et al. 2006 (supra); Table 2). Briefly, for DE induction 80% confluent cultures were washed with PBS and treated with 100 ng/ml Activin-A (RnD Systems) and 25 ng/ml Wnt3a (RnD Systems) for 24h in RPMI (Invitrogen) supplemented with antibiotics and Glutamax; then they were further treated with 100 ng/ml Activin-A in RPMI containing 0.2% FBS (PAA Laboratories) for 48h. PGT stage cells were treated with 50 ng/ml FGF10 (RnD Systems), 250 nM KAAD-Cyclopamine (Calbiochem) and 2% FBS in RPMI medium for 3 or 4 days. In the PFG stage (3-4 days), the medium was changed to DMEM supplemented with Glutamax, antibiotics, 1% B27 (Invitrogen), 2 µM retinoic acid (RA, Sigma), FGF10 and KAAD-Cyclopamine. […]
At each stage, cultures were washed with PBS, fixed for 10-15 min at room temperature in 4% formaldehyde and rinsed several times. […] Immunocytochemistry was performed for the detection of Hnf1B using a donkey horse radish peroxidase (HRP)-conjugated secondary antibody and detected by the ABC complex (Dako) as previously described in Mfopou et al. 2007 (Stem Cells 25: 1156-1165). […]

In the case of `Cc1c[nH]c(/C=C2\C(=O)Nc3ccccc32)c1CCC(=O)O` [SU5402], the “albumin expression by the pancreas endoderm stage” value (SU5402 (250 nM) alone) is reported as “attenuates albumin expression” and the reduced hepatic differentiation (SU5402 added in PGT and PFG stages (FGF signalling inhibition)) is reported as “at least 50%”.
